# Reference: patent US6867185B2 (Bristol-Myers Squibb Company, priority 2001, dated 2005)
# Structures can show the parent of a compound that is named as a salt. Where two headings read alike, the source gives them in different places.
# Columns and labels:
# [1] = rcm bond, 1,2-dichloroethane
# [2] = rcm bond, 1,2-DCE
# [3] = tested on: HCV replicon in Huh7 cells; test: HCV replicon cell-based assay (replicon FRET assay); design: species or system HCV strain 1B; conditions: Hepatitis C virus, Huh-7, HCV replicon cell assay; EC50 ranges
# How it was run: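 Huh7 cells carrying a genotype 1b subgenomic replicon (neo, NS3–NS5B) were treated with compound for 4 days at 37 °C in 0.5% DMSO final. Lysates with 10 μM RET S1 FRET peptide and 150 mM NaCl were read kinetically at 340/490 nm over 21 cycles. EC50 was derived as for the enzyme IC50.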
# [4] = biological target: T1, HCV NS3/4A protease complex, BMS strain (genotype 1a) (Hepatitis C virus genotype 1a, UniProt P27958, C1454S/C1711G); test: Recombinant HCV NS3/4A protease complex FRET peptide assay (BMS strain); type: biochemical; conditions: IC50, HCV NS3/4A protease FRET assay in vitro; IC50 ranges
# T1 construct: recombinant HCV NS3/4A protease complex (amino'acids 1027 to 1711); inferred from the pET21b vector and Ni-NTA purification; made in house; host or cells: Escherichia coli BL21 (DE3), pET21b
# How it was run: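 Enzyme was NS3/4A complex (aa 1027-1711) from genotype 1a BMS strain, carrying C1454S and C1711G mutations plus a three-lysine tail, expressed in E. coli and Ni-NTA/size-exclusion purified to >90% purity.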
# [5] = from 1-{[1-(2(S)-tert-butoxycarbonylamino-oct-7-enoyl)-4-(7-methoxy-2-phenylquinolin-4(R)-yloxy)-pyrrolidine-2(S)-carbonyl]-1(R)-amino]-2(S)-vinyl-cyclopropanecarboxylic acid ethyl ester, 14-membered ring, Grubbs catalyst (275 + 225 mg)
# T1 sequence (P27958 1027-1711 C1454S/C1711G, one chain of several): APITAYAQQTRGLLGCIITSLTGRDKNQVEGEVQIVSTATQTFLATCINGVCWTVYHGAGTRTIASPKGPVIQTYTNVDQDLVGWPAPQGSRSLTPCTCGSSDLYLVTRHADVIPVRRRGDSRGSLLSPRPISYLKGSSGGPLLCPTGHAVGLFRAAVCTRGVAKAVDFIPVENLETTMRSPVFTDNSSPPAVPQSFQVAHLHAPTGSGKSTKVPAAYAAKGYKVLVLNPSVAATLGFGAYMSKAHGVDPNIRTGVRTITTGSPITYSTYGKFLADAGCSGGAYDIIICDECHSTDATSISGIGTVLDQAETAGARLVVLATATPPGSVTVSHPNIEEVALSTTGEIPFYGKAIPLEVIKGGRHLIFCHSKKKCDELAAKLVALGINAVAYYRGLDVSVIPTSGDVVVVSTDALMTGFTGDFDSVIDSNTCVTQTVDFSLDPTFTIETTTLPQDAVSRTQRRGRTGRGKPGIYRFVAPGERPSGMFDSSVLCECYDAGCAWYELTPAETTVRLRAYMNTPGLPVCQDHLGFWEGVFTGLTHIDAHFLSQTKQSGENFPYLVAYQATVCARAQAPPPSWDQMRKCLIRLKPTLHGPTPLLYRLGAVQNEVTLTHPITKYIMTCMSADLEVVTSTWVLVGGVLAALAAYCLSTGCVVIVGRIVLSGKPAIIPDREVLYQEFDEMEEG
compound,measurement,setting,value
CCOC(=O)[C@@]12C[C@H]1C=CCCCC[C@H](NC(=O)OC(C)(C)C)C(=O)N1C[C@H](Oc3cc(-c4ccccc4)nc4cc(OC)ccc34)C[C@H]1C(=O)N2,"ring closure, yield of all isomers","[1]; from C=CCCCC[C@H](NC(=O)OC(C)(C)C)C(=O)N1C[C@H](Oc2cc(-c3ccccc3)nc3cc(OC)ccc23)C[C@H]1C(=O)N[C@]1(C(=O)OCC)C[C@H]1C=C, Grubbs catalyst, 0.772 mM, 83.0 °C, 21.0 h",52%
same,"ring closure, yield of all isomers","[1]; from C=CCCCC[C@H](NC(=O)OC(C)(C)C)C(=O)N1C[C@H](Oc2cc(-c3ccccc3)nc3cc(OC)ccc23)C[C@H]1C(=O)N[C@]1(C(=O)OCC)C[C@H]1C=C, Grubbs catalyst, 2.02 mM, 83.0 °C, 15.0 h",28%
CCOC(=O)[C@@]12C[C@H]1/C=C/CC[C@H](NC(=O)OC(C)(C)C)C(=O)N1C[C@H](Oc3cc(-c4ccccc4)nc4cc(OC)ccc34)C[C@H]1C(=O)N2,"ring closure, isolated yield","[2]; from 1-{[1-(2(S)-tert-butoxycarbonylamino-hex-5-enoyl)-4-(7-methoxy-2-phenyl-quinolin-4(R)-yloxy)-pyrroiidine-2(S)-carbonyl]-1(R)-amino}-2(S)-vinyl-cyclopropanecarboxylic acid ethyl ester, 12-membered ring, Grubbs catalyst (2 x 70 mg), 2.02 mM",46%
CCOC(=O)[C@@]12C[C@H]1C=CCCCCC[C@H](NC(=O)OC(C)(C)C)C(=O)N1C[C@H](Oc3cc(-c4ccccc4)nc4cc(OC)ccc34)C[C@H]1C(=O)N2,"ring closure, yield of all isomers","[1]; from C=CCCCCC[C@H](NC(=O)OC(C)(C)C)C(=O)N1C[C@H](Oc2cc(-c3ccccc3)nc3cc(OC)ccc23)C[C@H]1C(=O)N[C@]1(C(=O)OCC)C[C@H]1C=C, Grubbs catalyst, 0.829 mM, 83.0 °C, 15.0 h",75%
CCOC(=O)[C@@]12CC1/C=C/CCCC[C@H](C(=O)OC(C)(C)C)C(=O)N1C[C@H](Oc3cc(-c4ccccc4)nc4cc(OC)ccc34)C[C@@]1(N)C(=O)N2 (some centres unmarked),"ring closure, isolated yield",[2]; [5],8%
COc1ccc2c(O[C@@H]3C[C@H]4C(=O)N[C@]5(C(=O)NS(=O)(=O)C6CC6)C[C@H]5C=CCCCCC[C@H](NC(=O)OC(C)(C)C)C(=O)N4C3)ccnc2c1,"ring closure, yield of all isomers","[1]; from C=CCCCCC[C@H](NC(=O)OC(C)(C)C)C(=O)N1C[C@H](Oc2ccnc3cc(OC)ccc23)C[C@H]1C(=O)N[C@]1(C(=O)NS(=O)(=O)C2CC2)C[C@H]1C=C, Grubbs catalyst, 1.02 mM, 83.0 °C, 10.0 h",1.9%
CCOC(=O)[C@@]12C[C@H]1C=CCC[C@H](NC(=O)OC(C)(C)C)C(=O)N1C[C@H](Oc3cc(-c4ccccc4)nc4cc(OC)ccc34)C[C@H]1C(=O)N2,"ring closure, yield of all isomers","[1]; from C=CCC[C@H](NC(=O)OC(C)(C)C)C(=O)N1C[C@H](Oc2cc(-c3ccccc3)nc3cc(OC)ccc23)C[C@H]1C(=O)N[C@]1(C(=O)OCC)C[C@H]1C=C, Grubbs catalyst, 2.02 mM, 83.0 °C, 15.0 h",46%
CCOC(=O)[C@@]12C[C@H]1C=CCCCSC[C@@H](NC(=O)OC(C)(C)C)C(=O)N1C[C@H](Oc3cc(-c4ccccc4)nc4cc(OC)ccc34)C[C@H]1C(=O)N2,"ring closure, yield of all isomers","[1]; from C=CCCCSC[C@@H](NC(=O)OC(C)(C)C)C(=O)N1C[C@H](Oc2cc(-c3ccccc3)nc3cc(OC)ccc23)C[C@H]1C(=O)N[C@]1(C(=O)OCC)C[C@H]1C=C, Grubbs II (tricyclohexylphosphine[1,3-bis(2,4,6-trimethylphenyl)-4,5-dihydroimidazol-2-ylidene][benzylidene]ruthenium(IV) dichloride), 3.48 mM, 45.0 °C, 21.0 h",42%
"(1S,4R,6S,12S,16R)-7-trans-12-tert-butoxycarbonylamino-16-(7-methoxy-2-phenylquinolin-4-yloxy)-2,13-dioxo-3,14-diazatricyclo[12.3.0.0^4,6]hepta-dec-7-ene-4-carboxylic acid ethyl ester","ring closure, isolated yield","[2]; 13-membered ring, Grubbs catalyst (2 x 75 mg)",49%
CCOC(=O)[C@@]12C[C@H]1C=CCCC[C@H](NC(=O)OC(C)(C)C)C(=O)N1C[C@H](Oc3cc(-c4ccccc4)nc4cc(OC)ccc34)C[C@H]1C(=O)N2,"ring closure, yield of all isomers","[1]; from C=CCCC[C@H](NC(=O)OC(C)(C)C)C(=O)N1C[C@H](Oc2cc(-c3ccccc3)nc3cc(OC)ccc23)C[C@H]1C(=O)N[C@]1(C(=O)OCC)C[C@H]1C=C, Grubbs catalyst, 2.02 mM, 83.0 °C, 15.0 h",49%
"COc1ccc2c(O[C@@H]3C[C@H]4C(=O)N[C@]5(C(=O)NS(=O)(=O)C6CC6)CC5/C=C\CCCC[C@H](N)C(=O)N4C3)cc(-c3ccccc3)nc2c1 (stereo partly drawn) [Compound 8, (1S,4R,6S,13S,17R)-7-cis-Cyclopropanesulfonic acid [13-amino-17-(7-methoxy-2-phenylquinolin-4-yloxy)-2,14-dioxo-3,15-diazatricyclo[13.3.0.0^4,6]octadec-7-ene-4-carbonyl]amide dihydrochloride]",EC50,[3],< 500 nM
same,IC50,[4],< 50 nM
CCOC(=O)[C@@]12C[C@H]1/C=C\CCCC[C@H](NC(=O)OC(C)(C)C)C(=O)N1C[C@H](Oc3cc(-c4ccccc4)nc4cc(OC)ccc34)C[C@H]1C(=O)N2,"ring closure, isolated yield",[2]; [5],20%
same,"ring closure, isolated yield","[2]; from 1-{[1-(2(S)-tert-butoxycarbonylamino-oct-7-enoyl)-4-(7-methoxy-2-phenylquinolin-4(R)-yloxy)pyrrolidine-2(S)-carbonyl]-1(R)-amino]-2(S)-vinylcyclopropanecarboxylic acid ethyl ester, 14-membered ring, Grubbs catalyst (150 + 140 + 140 mg), 0.77 mM",52%
CCOC(=O)[C@@]12C[C@H]1/C=C\CCCCC[C@H](NC(=O)OC(C)(C)C)C(=O)N1C[C@H](Oc3cc(-c4ccccc4)nc4cc(OC)ccc34)C[C@H]1C(=O)N2,"ring closure, isolated yield","[2]; from 1-{[1-(2(S)-tert-butoxycarbonylamino-non-8-enoyl)-4-(7-methoxy-2-phenylquinolin-4(R)-yloxy)-pyrrolidine-2(S)-carbonyl]-1(R)-amino]-2 (5)-vinylcyclopropanecarboxylic acid ethyl ester, 15-membered ring, Grubbs catalyst (3 x 150 mg), 0.83 mM",75%
"COc1ccc2c(O[C@@H]3C[C@H]4C(=O)N[C@]5(C(=O)NS(=O)(=O)C6CC6)CC5CCCCCC[C@H](NC(=O)OC5CCCC5)C(=O)N4C3)cc(-c3ccccc3)nc2c1 (stereo partly drawn) [Compound 25, (1S,4R,6R,14S,17R)-[4-Cyclopropanesulfonylaminocarbonyl-17-(7-methoxy-2-phenylquinolin-4-yloxy)-2,14-dioxo-3,15-diazatricyclo[13.3.0.0^4,6]octa-dec-13-yl]carbamic acid cyclopentyl ester]",EC50,[3],< 50 nM
same,IC50,[4],< 50 nM
